# In PMC8201479, “Trisubstituted Pyrrolinones as Small-Molecule Inhibitors Disrupting the Protein–RNA Interaction of LIN28 and Let-7” (ACS Medicinal Chemistry Letters, 2021):
# pIC50: −log10 of the molar value.
# Target: T1, LIN28–let-7 interaction (Homo sapiens, UniProt Q9H9Z2)
# T1 construct: Purified LIN28A (residues 16–187) was incubated at a concentration of 200 nM; His-tag (cleaved yes); made in house; host or cells: Escherichia coli BL21(DE3)
# T1 sequence (Q9H9Z2 16-187): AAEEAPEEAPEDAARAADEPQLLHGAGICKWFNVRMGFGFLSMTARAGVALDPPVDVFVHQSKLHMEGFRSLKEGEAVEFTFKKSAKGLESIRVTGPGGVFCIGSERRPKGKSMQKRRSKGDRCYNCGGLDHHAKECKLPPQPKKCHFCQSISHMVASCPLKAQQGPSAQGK
# Test: Fluorescence polarization (FP) assay, LIN28A (residues 16–187) and FAM-labeled preE-let-7f-1
# Assay type: binding
# Conditions: Table 1; quadruplicate; starting from 30 μM, eight concentrations; extrapolated based on the observed IC50 curves; read-out: IC50, LIN28–let-7 inhibitory activity
row,pIC50,SMILES
1,< 4.00,O=C(O)c1ccc(C2C(C(=O)c3ccc(Br)cc3)=C(O)C(=O)N2c2cccc(-c3nnn[nH]3)c2)cc1 (centres unmarked) [C896]
2,< 4.00,O=C(O)c1ccc(C2C(C(=O)c3ccc(Br)cc3)=C(O)C(=O)N2c2ccc(C(=O)O)cc2)cc1 (centres unmarked) [C895]
3,< 4.00,O=C(O)c1ccc(C2C(C(=O)c3ccccc3)=C(O)C(=O)N2c2cccc(C(=O)O)c2)cc1 (centres unmarked) [C881]
4,< 4.00,O=C(O)c1ccc(C2C(C(=O)c3ccccc3)=C(O)C(=O)N2c2ccc(C(=O)O)cc2)cc1 (centres unmarked) [C882]
5,< 4.00,O=C(C1=C(O)C(=O)N(c2cccc(-c3nnn[nH]3)c2)C1c1ccc(-c2nccs2)cc1)c1ccccc1 (centres unmarked) [C898]
6,< 4.00,COc1ccc(C(=O)C2=C(O)C(=O)N(c3ccc(C(=O)O)cc3)C2c2ccc([N+](=O)[O-])cc2)cc1 (centres unmarked) [C884]
7,< 4.00,O=C(O)c1cccc(N2C(=O)C(O)=C(C(=O)c3ccc(Br)cc3)C2c2ccc([N+](=O)[O-])cc2)c1 (centres unmarked) [C891]
8,4.40 to 4.52,O=C(O)c1ccc(C2C(C(=O)c3ccc(Br)cc3)=C(O)C(=O)N2c2ccc(O)c(C(=O)O)c2)cc1 (centres unmarked) [C893]

# Same assay, conditions: Table 1; quadruplicate; starting from a maximum concentration of 60 μM, eight concentrations; read-out: IC50, LIN28–let-7 inhibitory activity
row,pIC50,SMILES
1,4.92,COc1ccc(C(=O)C2=C(O)C(=O)N(c3ccc(O)c(C(=O)O)c3)C2c2ccc(-c3nccs3)cc2)cc1OC (centres unmarked) [PH-44]
2,4.39,O=C(C1=C(O)C(=O)N(c2ccc(O)c([N+](=O)[O-])c2)C1c1ccc(-c2nccs2)cc1)c1ccccc1 (centres unmarked) [PH-37]
3,5.30,O=C(C1=C(O)C(=O)N(c2ccc(O)c(C(=O)O)c2)C1c1ccc(-c2nccs2)cc1)c1ccco1 (centres unmarked) [PH-43]
4,4.80,O=C(O)c1ccc(C2C(C(=O)c3ccccc3)=C(O)C(=O)N2c2ccc(C(=O)O)c(O)c2)cc1 (centres unmarked) [PH-38]

# Same assay, conditions: Table 1; quadruplicate; starting from a maximum of 60 μM, eight concentrations; extrapolated based on the observed IC50 curves; read-out: IC50, LIN28–let-7 inhibitory activity
row,pIC50,SMILES
1,< 4.00,O=C(C1=C(O)C(=O)N(c2ccc(C(=O)O)c(O)c2)C1c1ccc(-c2nccs2)cc1)c1ccc(Br)cc1 (centres unmarked) [PH-30]
2,< 4.00,O=C(C1=C(O)C(=O)N(c2ccc(O)cc2)C1c1ccc(-c2nccs2)cc1)c1ccc(Br)cc1 (centres unmarked) [PH-35]

# Same assay, conditions: raw data Table S3; 0.041 μM compound; four replicates
row,"FP, Average (mP)",SMILES
1,96.70,COc1ccc(C(=O)C2=C(O)C(=O)N(c3ccc(O)c(C(=O)O)c3)C2c2ccc(-c3nccs3)cc2)cc1OC (centres unmarked) [PH-44]
2,110.75,O=C(C1=C(O)C(=O)N(c2ccc(C(=O)O)c(O)c2)C1c1ccc(-c2nccs2)cc1)c1ccc(Br)cc1 (centres unmarked) [PH-30]
3,115.25,O=C(C1=C(O)C(=O)N(c2ccc(O)cc2)C1c1ccc(-c2nccs2)cc1)c1ccc(Br)cc1 (centres unmarked) [PH-35]
4,113.25,O=C(C1=C(O)C(=O)N(c2ccc(O)c([N+](=O)[O-])c2)C1c1ccc(-c2nccs2)cc1)c1ccccc1 (centres unmarked) [PH-37]
5,110.50,O=C(C1=C(O)C(=O)N(c2ccc(O)c(C(=O)O)c2)C1c1ccc(-c2nccs2)cc1)c1ccco1 (centres unmarked) [PH-43]
6,113.00,O=C(O)c1ccc(C2C(C(=O)c3ccccc3)=C(O)C(=O)N2c2ccc(C(=O)O)c(O)c2)cc1 (centres unmarked) [PH-38]

# Same assay, conditions: raw data Table S3; 0.123 μM compound; four replicates
row,"FP, Average (mP)",SMILES
1,118.00,COc1ccc(C(=O)C2=C(O)C(=O)N(c3ccc(O)c(C(=O)O)c3)C2c2ccc(-c3nccs3)cc2)cc1OC (centres unmarked) [PH-44]
2,116.25,O=C(C1=C(O)C(=O)N(c2ccc(C(=O)O)c(O)c2)C1c1ccc(-c2nccs2)cc1)c1ccc(Br)cc1 (centres unmarked) [PH-30]
3,112.75,O=C(C1=C(O)C(=O)N(c2ccc(O)cc2)C1c1ccc(-c2nccs2)cc1)c1ccc(Br)cc1 (centres unmarked) [PH-35]
4,106.48,O=C(C1=C(O)C(=O)N(c2ccc(O)c([N+](=O)[O-])c2)C1c1ccc(-c2nccs2)cc1)c1ccccc1 (centres unmarked) [PH-37]
5,109.50,O=C(C1=C(O)C(=O)N(c2ccc(O)c(C(=O)O)c2)C1c1ccc(-c2nccs2)cc1)c1ccco1 (centres unmarked) [PH-43]
6,113.25,O=C(O)c1ccc(C2C(C(=O)c3ccccc3)=C(O)C(=O)N2c2ccc(C(=O)O)c(O)c2)cc1 (centres unmarked) [PH-38]

# Same assay, conditions: raw data Table S3; 0.368 μM compound; four replicates
row,"FP, Average (mP)",SMILES
1,115.00,COc1ccc(C(=O)C2=C(O)C(=O)N(c3ccc(O)c(C(=O)O)c3)C2c2ccc(-c3nccs3)cc2)cc1OC (centres unmarked) [PH-44]
2,115.75,O=C(C1=C(O)C(=O)N(c2ccc(C(=O)O)c(O)c2)C1c1ccc(-c2nccs2)cc1)c1ccc(Br)cc1 (centres unmarked) [PH-30]
3,116.50,O=C(C1=C(O)C(=O)N(c2ccc(O)cc2)C1c1ccc(-c2nccs2)cc1)c1ccc(Br)cc1 (centres unmarked) [PH-35]
4,115.75,O=C(C1=C(O)C(=O)N(c2ccc(O)c([N+](=O)[O-])c2)C1c1ccc(-c2nccs2)cc1)c1ccccc1 (centres unmarked) [PH-37]
5,109.75,O=C(C1=C(O)C(=O)N(c2ccc(O)c(C(=O)O)c2)C1c1ccc(-c2nccs2)cc1)c1ccco1 (centres unmarked) [PH-43]
6,117.75,O=C(O)c1ccc(C2C(C(=O)c3ccccc3)=C(O)C(=O)N2c2ccc(C(=O)O)c(O)c2)cc1 (centres unmarked) [PH-38]

# Same assay, conditions: raw data Table S3; 1.103 μM compound; four replicates
row,"FP, Average (mP)",SMILES
1,107.75,COc1ccc(C(=O)C2=C(O)C(=O)N(c3ccc(O)c(C(=O)O)c3)C2c2ccc(-c3nccs3)cc2)cc1OC (centres unmarked) [PH-44]
2,116.25,O=C(C1=C(O)C(=O)N(c2ccc(C(=O)O)c(O)c2)C1c1ccc(-c2nccs2)cc1)c1ccc(Br)cc1 (centres unmarked) [PH-30]
3,109.50,O=C(C1=C(O)C(=O)N(c2ccc(O)cc2)C1c1ccc(-c2nccs2)cc1)c1ccc(Br)cc1 (centres unmarked) [PH-35]
4,111.25,O=C(C1=C(O)C(=O)N(c2ccc(O)c([N+](=O)[O-])c2)C1c1ccc(-c2nccs2)cc1)c1ccccc1 (centres unmarked) [PH-37]
5,98.88,O=C(C1=C(O)C(=O)N(c2ccc(O)c(C(=O)O)c2)C1c1ccc(-c2nccs2)cc1)c1ccco1 (centres unmarked) [PH-43]
6,113.25,O=C(O)c1ccc(C2C(C(=O)c3ccccc3)=C(O)C(=O)N2c2ccc(C(=O)O)c(O)c2)cc1 (centres unmarked) [PH-38]

# Same assay, conditions: raw data Table S3; 3.125 μM compound; four replicates
row,"FP, Average (mP)",SMILES
1,92.95,COc1ccc(C(=O)C2=C(O)C(=O)N(c3ccc(O)c(C(=O)O)c3)C2c2ccc(-c3nccs3)cc2)cc1OC (centres unmarked) [PH-44]
2,107.00,O=C(C1=C(O)C(=O)N(c2ccc(C(=O)O)c(O)c2)C1c1ccc(-c2nccs2)cc1)c1ccc(Br)cc1 (centres unmarked) [PH-30]
3,110.25,O=C(C1=C(O)C(=O)N(c2ccc(O)cc2)C1c1ccc(-c2nccs2)cc1)c1ccc(Br)cc1 (centres unmarked) [PH-35]
4,111.50,O=C(C1=C(O)C(=O)N(c2ccc(O)c([N+](=O)[O-])c2)C1c1ccc(-c2nccs2)cc1)c1ccccc1 (centres unmarked) [PH-37]
5,79.00,O=C(C1=C(O)C(=O)N(c2ccc(O)c(C(=O)O)c2)C1c1ccc(-c2nccs2)cc1)c1ccco1 (centres unmarked) [PH-43]
6,101.00,O=C(O)c1ccc(C2C(C(=O)c3ccccc3)=C(O)C(=O)N2c2ccc(C(=O)O)c(O)c2)cc1 (centres unmarked) [PH-38]

# Same assay, conditions: raw data Table S3; 9.375 μM compound; four replicates
row,"FP, Average (mP)",SMILES
1,82.98,COc1ccc(C(=O)C2=C(O)C(=O)N(c3ccc(O)c(C(=O)O)c3)C2c2ccc(-c3nccs3)cc2)cc1OC (centres unmarked) [PH-44]
2,111.25,O=C(C1=C(O)C(=O)N(c2ccc(C(=O)O)c(O)c2)C1c1ccc(-c2nccs2)cc1)c1ccc(Br)cc1 (centres unmarked) [PH-30]
3,104.00,O=C(C1=C(O)C(=O)N(c2ccc(O)cc2)C1c1ccc(-c2nccs2)cc1)c1ccc(Br)cc1 (centres unmarked) [PH-35]
4,95.58,O=C(C1=C(O)C(=O)N(c2ccc(O)c([N+](=O)[O-])c2)C1c1ccc(-c2nccs2)cc1)c1ccccc1 (centres unmarked) [PH-37]
5,55.18,O=C(C1=C(O)C(=O)N(c2ccc(O)c(C(=O)O)c2)C1c1ccc(-c2nccs2)cc1)c1ccco1 (centres unmarked) [PH-43]
6,86.53,O=C(O)c1ccc(C2C(C(=O)c3ccccc3)=C(O)C(=O)N2c2ccc(C(=O)O)c(O)c2)cc1 (centres unmarked) [PH-38]

# Same assay, conditions: raw data Table S3; 29.688 μM compound; four replicates
row,"FP, Average (mP)",SMILES
1,63.53,COc1ccc(C(=O)C2=C(O)C(=O)N(c3ccc(O)c(C(=O)O)c3)C2c2ccc(-c3nccs3)cc2)cc1OC (centres unmarked) [PH-44]
2,107.25,O=C(C1=C(O)C(=O)N(c2ccc(C(=O)O)c(O)c2)C1c1ccc(-c2nccs2)cc1)c1ccc(Br)cc1 (centres unmarked) [PH-30]
3,104.65,O=C(C1=C(O)C(=O)N(c2ccc(O)cc2)C1c1ccc(-c2nccs2)cc1)c1ccc(Br)cc1 (centres unmarked) [PH-35]
4,86.53,O=C(C1=C(O)C(=O)N(c2ccc(O)c([N+](=O)[O-])c2)C1c1ccc(-c2nccs2)cc1)c1ccccc1 (centres unmarked) [PH-37]
5,37.25,O=C(C1=C(O)C(=O)N(c2ccc(O)c(C(=O)O)c2)C1c1ccc(-c2nccs2)cc1)c1ccco1 (centres unmarked) [PH-43]
6,50.30,O=C(O)c1ccc(C2C(C(=O)c3ccccc3)=C(O)C(=O)N2c2ccc(C(=O)O)c(O)c2)cc1 (centres unmarked) [PH-38]

# Same assay, conditions: raw data Table S3; 59.375 μM compound; four replicates
row,"FP, Average (mP)",SMILES
1,54.00,COc1ccc(C(=O)C2=C(O)C(=O)N(c3ccc(O)c(C(=O)O)c3)C2c2ccc(-c3nccs3)cc2)cc1OC (centres unmarked) [PH-44]
2,98.68,O=C(C1=C(O)C(=O)N(c2ccc(C(=O)O)c(O)c2)C1c1ccc(-c2nccs2)cc1)c1ccc(Br)cc1 (centres unmarked) [PH-30]
3,93.48,O=C(C1=C(O)C(=O)N(c2ccc(O)cc2)C1c1ccc(-c2nccs2)cc1)c1ccc(Br)cc1 (centres unmarked) [PH-35]
4,71.50,O=C(C1=C(O)C(=O)N(c2ccc(O)c([N+](=O)[O-])c2)C1c1ccc(-c2nccs2)cc1)c1ccccc1 (centres unmarked) [PH-37]
5,33.68,O=C(C1=C(O)C(=O)N(c2ccc(O)c(C(=O)O)c2)C1c1ccc(-c2nccs2)cc1)c1ccco1 (centres unmarked) [PH-43]
6,49.00,O=C(O)c1ccc(C2C(C(=O)c3ccccc3)=C(O)C(=O)N2c2ccc(C(=O)O)c(O)c2)cc1 (centres unmarked) [PH-38]
